Test results as given in patent publication US8957085B2, “Carboxamide bioisosteres of opiates” (Rensselaer Polytechnic Institute, priority 2010, dated 2015).

Legend:
human κ opioid receptor = human κ opioid receptor (Homo sapiens, UniProt P41145); test: biochemical
human δ opioid receptor = human δ opioid receptor (Homo sapiens, UniProt P41143); test: Opioid receptor binding assay, [3H]naltrindole (δ); conditions: Ki [3H]Naltrindole (δ), membranes of CHO cells expressing human δ opioid receptor; 0.2 nM [3H]naltrindole; mean ± S.E.
human μ opioid receptor = human μ opioid receptor (Homo sapiens, UniProt P35372); test: Opioid receptor binding assay, [3H]DAMGO (μ)
[1] = 1 mg/kg ip in mice; cited from earlier work

Chain of human μ opioid receptor (P35372 whole entry): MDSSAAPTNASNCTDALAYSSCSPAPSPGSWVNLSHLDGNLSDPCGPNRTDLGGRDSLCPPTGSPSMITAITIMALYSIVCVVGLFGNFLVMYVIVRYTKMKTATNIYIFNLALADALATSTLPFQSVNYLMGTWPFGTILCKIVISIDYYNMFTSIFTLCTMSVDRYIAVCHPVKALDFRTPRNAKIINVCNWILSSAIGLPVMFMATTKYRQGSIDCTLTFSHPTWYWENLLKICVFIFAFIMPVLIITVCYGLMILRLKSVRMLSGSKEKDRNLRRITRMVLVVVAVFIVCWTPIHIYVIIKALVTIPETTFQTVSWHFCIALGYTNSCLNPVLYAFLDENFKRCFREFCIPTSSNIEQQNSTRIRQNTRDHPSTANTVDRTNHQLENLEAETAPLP
Chain of human κ opioid receptor (P41145 whole entry): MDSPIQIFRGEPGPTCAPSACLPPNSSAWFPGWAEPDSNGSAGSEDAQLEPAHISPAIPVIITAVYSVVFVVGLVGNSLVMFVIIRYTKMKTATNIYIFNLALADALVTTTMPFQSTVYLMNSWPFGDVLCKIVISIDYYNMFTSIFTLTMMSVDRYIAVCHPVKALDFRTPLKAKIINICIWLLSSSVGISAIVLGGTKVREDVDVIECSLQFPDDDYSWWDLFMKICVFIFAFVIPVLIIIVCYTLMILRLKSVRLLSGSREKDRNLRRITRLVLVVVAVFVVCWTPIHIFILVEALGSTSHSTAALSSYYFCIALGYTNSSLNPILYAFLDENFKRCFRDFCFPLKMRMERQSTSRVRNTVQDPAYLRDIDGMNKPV
Chain of human δ opioid receptor (P41143 whole entry): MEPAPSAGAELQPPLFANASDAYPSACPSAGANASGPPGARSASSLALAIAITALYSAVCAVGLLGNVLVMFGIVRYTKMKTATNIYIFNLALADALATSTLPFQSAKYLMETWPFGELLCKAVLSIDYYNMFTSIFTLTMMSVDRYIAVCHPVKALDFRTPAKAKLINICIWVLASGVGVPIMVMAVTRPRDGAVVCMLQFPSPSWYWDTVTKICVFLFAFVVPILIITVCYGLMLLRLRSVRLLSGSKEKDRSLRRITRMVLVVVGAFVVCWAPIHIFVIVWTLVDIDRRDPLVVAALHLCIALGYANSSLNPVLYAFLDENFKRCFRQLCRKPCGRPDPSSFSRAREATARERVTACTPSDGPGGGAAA

Structure (SMILES) | Ki (human κ opioid receptor) [nM] | Ki (human δ opioid receptor) [nM] | Ki (human μ opioid receptor) [nM] | duration of action (antinociception) [1] [h]
CC1C2Cc3ccc(C(=O)NCCc4ccc(-c5ccc(O)cc5)cc4)cc3C1(C)CCN2CC1CC1 (racemic) [Compound 1] | 0.49 ± 0.011 | 0.81 ± 0.12 |  | 
COc1ccc(-c2ccc(CCNC(=O)c3ccc4c(c3)C3(C)CCN(CC5CC5)C(C4)C3C)cc2)cc1C (racemic) [Compound 2] |  | 1.5 ± 0.14 |  | 
COc1ccc(-c2ccc(CCNC(=O)c3ccc4c(c3)C3(C)CCN(CC5CC5)C(C4)C3C)cc2)c(C)c1 (racemic) [Compound 3] | 1.3 ± 0.11 | 1.1 ± 0.18 | 0.23 ± 0.0056 | 
CCOc1ccc(-c2ccc(CCNC(=O)c3ccc4c(c3)C3(C)CCN(CC5CC5)C(C4)C3C)cc2)cc1 (racemic) [Compound 4] | 3.3 ± 0.32 | 3.4 ± 0.039 |  | 
CC(C)Oc1ccc(-c2ccc(CCNC(=O)c3ccc4c(c3)C3(C)CCN(CC5CC5)C(C4)C3C)cc2)cc1 (racemic) [Compound 5] |  | 1.9 ± 0.21 | 0.23 ± 0.041 | 
CC(C)Oc1cccc(-c2ccc(CCNC(=O)c3ccc4c(c3)C3(C)CCN(CC5CC5)C(C4)C3C)cc2)c1 (racemic) [Compound 6] | 2.4 ± 0.25 | 3.9 ± 1.4 | 0.43 ± 0.041 | 
CC(C)Oc1ccccc1-c1ccc(CCNC(=O)c2ccc3c(c2)C2(C)CCN(CC4CC4)C(C3)C2C)cc1 (racemic) [Compound 7] | 1.8 ± 0.17 | 0.55 ± 0.025 |  | 
CC1C2Cc3ccc(C(=O)NCCc4ccc(-c5ccc6c(c5)OCO6)cc4)cc3C1(C)CCN2CC1CC1 (racemic) [Compound 8] | 0.73 ± 0.049 | 1 ± 0.12 |  | 
CC1C2Cc3ccc(C(=O)NCCc4ccc(-c5ccc(C#N)cc5)cc4)cc3C1(C)CCN2CC1CC1 (racemic) [Compound 9] | 1 ± 0.095 | 3 ± 0.11 | 0.017 ± 0.00075 | 
CC1C2Cc3ccc(C(=O)NCCc4ccc(-c5ccc(C=O)cc5)cc4)cc3C1(C)CCN2CC1CC1 (racemic) [Compound 10] | 1.8 ± 0.038 | 2.5 ± 0.12 | 0.002 ± 0.00029 | 
C[C@H]1C2Cc3ccc(C(=O)NCCc4ccc(-c5ccc(C(N)=O)cc5)cc4)cc3[C@@]1(C)CCN2CC1CC1 (racemic) [Compound 34] | 0.91 ± 0.066 | 1 ± 0.018 | 0.0052 ± 0.00055 | 
C[C@H]1C2Cc3ccc(C(=O)NCCc4ccc(-c5ccc(C(=O)O)cc5)cc4)cc3[C@@]1(C)CCN2CC1CC1 (racemic) [Compound 35] | 55 ± 4.1 | 68 ± 9 | 2.3 ± 0.16 | 
COC(=O)c1ccc(-c2ccc(CCNC(=O)c3ccc4c(c3)[C@@]3(C)CCN(CC5CC5)C(C4)[C@@H]3C)cc2)cc1 (racemic) [Compound 36] | 1.1 ± 0.13 | 1.5 ± 0.062 | 0.0091 ± 0.00071 | 
CC1C2Cc3ccc(C(=O)NCCc4ccc(-c5ccc(O)cc5)cc4)cc3C1(C)CCN2CC1CC1 (single isomer, unassigned) [Compound 1A] | 0.36 ± 0.018 | 0.78 ± 0.05 |  | 
C[C@H]1C2Cc3ccc(C(N)=O)cc3[C@@]1(C)CCN2CC1CC1 [Compound 8-CAC, 8-carboxamidocyclazocine] |  |  |  | 15
C[C@H]1[C@H]2Cc3ccc(O)cc3[C@]1(C)CCN2CC1CC1 [cyclazocine] |  |  |  | 2
